Data from patent US20060088545A1, “Use of inhibitors of the protease of the human immunodeficiency virus (hiv) to block cell migration and/or invasion, tissue infiltration and oedema for the therary of diseases associated therewith” (priority 2001, published 2006).
“Also recorded” adds a separate entry of the source.

Key:
[1] = tested on: primary macrovascular (umbilical vein) endothelial cells (HUVEC); experiment: Boyden chamber invasion assay of HUVEC in response to bFGF; assay type: cell-based, human; conditions: 0.1, 1 or 10 μM; bFGF 50 ng/ml; 6 hours
Description: Both assays were performed on endothelial cells.
Both assays were performed by the Boyden chamber separated in two compartments by polycarbonate filters with 12 μm pores (Nucleoprobe, Cabin John, Md.), coated with collagen IV (Collaborative Biomedical Products) for migration, or with collagen IV and Matrigel together for invasion, as described previously (Barillari et al., 1999b). […] After 5 hours (migration) or 6 hours (Invasion) of incubation, the non-migrated cells present on the top surface of the filters were mechanically removed, while the migrated cells on the bottom surface were fixed in methanol and stained with toluidine blue (Sigma Chemical Co., St. Louis, Mo.). The cells present in 5-10 microscopic fields of the filters, chosen at random, were counted as described previously (Barillari et al., 1999b).
The concentrations of HIV-PI used were the same as those present in plasma of treated patients (Deeks et al., 1997).

[2] = tested on: lung carcinoma (A549) cells; experiment: Invasion assay of A549 cells in response to bFGF; assay type: cell-based, human; conditions: 0.1, 1 or 10 μM
Description: The invasion assays were performed in the Boyden chamber. Polycarbonate filters ([…]; Nucleoprobe, Cabin John, Md.) were coated first with collagen IV and then with Matrigel (Collaborative Biomedical Products) as described previously (Barillari et al., 1999b). […] Human recombinant bFGF (50 ng/ml) was placed in the lower compartment as chemo-attractant. […] Louis, Mo.). Ten random filter fields were counted by light microscopy as described previously (Barillari et al., 1999b).

[3] = tested on: dermal microvascular endothelial cells (H-DMVEC); experiment: Proliferation assay of dermal microvascular endothelial cells with bFGF; assay type: cell-based, human; conditions: 10 μM; 5 days; bFGF 10 ng/ml
Text: After 5 days of culture, cells were counted by trypan blue dye exclusion, as described above. Data from duplicate experiments are expressed as the number of […] grown in response to bFGF in the presence of indinavir, saquinavir or HIV-PI-resuspension buffer.

[4] = tested on: breast carcinoma cells (MDA-MB-468); experiment: Cell growth assay of MDA-MB-468 cells; assay type: cell-based, human; conditions: 10 μM; 4 days
Description: Shown is the result of a representative cell growth assay performed on the breast carcinoma cells. Human breast carcinoma cells (MDA-MB468; ATCC) were plated in triplicate (8×10^4 cells/well) in 12-well plates. […] Ensoli et al., 1994b): For all the in vitro studies HIV-PI as endotoxin-free pure powder (a kind gift of Merck Sharp & Dohme and Roche) were resuspended in distilled water. Assays were repeated at least three times.

[5] = tested on: breast carcinoma (MDA-MB468) cells; experiment: Tumour lesions induced by MDA-MB468 cells in nude mice; assay type: in vivo; conditions: 5×10^6 cells/site; daily treatment
Description: FIG. 28. […] The treatment with HIV-PI or saline solution continued until sacrifice. The size of the lesions present at the injection site was evaluated daily by caliper measurement. External lesion area was then calculated as the product of the two major lesion diameters. The mean size (cm^2) of the lesions present at the injection site is shown.
To determine whether HIV-PI could inhibit the growth of malignant solid and lymphoid tumours, nude mice were inoculated with hepato-carcinoma cells (SK-Hep-1), lung carcinoma cells (A549), breast adeno-carcinoma cells (MDA-MB-468), myelo-monocytic leukaemia cells (U937), and T lymhocytic leukaemia cells (Jurkat).

IL-1β = IL-1β production by KS cells (ELISA); assay type: cell-based, human; conditions: 0.1, 1 and 10 μM, 5 days + 24 hours
Description: After 24 hours of incubation, the supernatants of the cultures were tested by ELISA (R & D Systems, Minneapolis, Minn., USA) to determine the quantity of IL-6 present in the medium. The quantity of IL-6 is expressed in pg/ml of supernatant. The same tests were carried out for bFGF, VEGF, IL-1α and IL-1β by means of commercial ELISA kits.
KS cells secrete cytokines with an inflammatory, oedemigenic, angiogenic and proliferative activity with autocrine and paracrine effects (Ensoli and Stürzl, 1998). These factors mediate all the processes required for KS-like lesions formation (angiogenesis, cellular proliferation and invasion, inflammatory Infiltration, oedema) and vascular permeability and oedema induced by KS cells in nude mice. […] The quantity of bFGF, VEGF, IL-1 and IL-6 was dosed with immuno-enzymatic trials in the supernatants of the KS cells after 24 hours of culture in the absence of serum and in the continuous presence of the two HIV-PI (ELISA). […] Furthermore IL-6 plays a key role in the multicentric Cstleman's diseases and in the growth of lymphomas (Tosato et al., 1993; Peterson and Frizzera, 1993; Asou et al., 1998; Ramsay et al., 1994), another type of tumour whose incidence is reduced in patients treated with HIV-PI (International Collaboration on HIV and Cancer 2000).

[6] = tested on: KS-like lesions induced by KS cells (KS12); experiment: Regression of KS-like lesions induced by KS cells in nude mice, no drug pre-treatment; assay type: in vivo; conditions: treatment started on the day of KS cell inoculation, 5 days
Description: Indinavir and saquinavir can also promote KS regression in the absence of any drug pre-treatment. […] Treatment was then continued for 5 days, until sacrifice. The mean size (cm^2) of the lesions present at the injection site evaluated by daily caliper measurement and calculated as the product of the two major lesion diameters is shown.
To determine whether HIV-PI can also promote KS regression in the absence of any drug pre-treatment, experiments were also performed by treating mice with HIV-PI at the time of KS cell inoculation.

EA-hy 926 cells = experiment: Angiogenic tumours induced by EA-hy 926 cells in nude mice (drug pre-treatment); assay type: in vivo; conditions: EA-hy 926 cells 3×10^6; for No. of mice with macroscopic lesions/No. of inoculated mice / mice with macroscopic lesions (%): treatment since 2 days prior to inoculation
Description: To determine whether HIV-PI could inhibit the growth of a malignant angiogenic tumour, nude mice were inoculated with the EA-hy 926 cell line. This cell line is derived from a hybrid between H-UVEC and human lung adeno-carcinoma cells (Edgell et al, PNAS 1983), retains most of the endothelial cell markers and is used as an angiogenic tumour model (Albini et al, Nat Med 1996; Albini et al, PNAS 1995; Cai et al, Lab Invest 1999). HIV-PI were administered to nude mice starting 2 days prior to tumour cell inoculation.
Mice were sacrificed 5-6 days after cell injection and lesions present at the injection site measured by caliper, and analyzed microscopically after H&E staining or by immuno-histochemical analysis. […] Tumour-associated angiogenesis was evaluated after immuno-histochemical staining for FVIII-RA or CD31 markers, as described in legend to Table 1. Shown are external lesion size (cm^2±SD) and the percentage of stained tumour tissue (±SD) as quantified by the KS300 image analysis software (Zeiss) (see methods).

Row | SMILES | invasion induced by bFGF [1] | invasive capacity in response to bFGF [2] | proliferation in response to bFGF [3] | proliferation [4] | development of tumour lesions (lesion size) [5] | production of IL-1β by KS cells (IL-1β) | regression of KS-like lesions (lesion size) [6] | External lesion size (cm^2 ± SD) (EA-hy 926 cells) [cm^2] | Tissue staining (area % ± SD) CD31 (EA-hy 926 cells) [%] | Tissue staining (area % ± SD) FVIII-RA (EA-hy 926 cells) [%] | No. of mice with macroscopic lesions/No. of inoculated mice (EA-hy 926 cells) | mice with macroscopic lesions (%) (EA-hy 926 cells) | production of IL-1β by KS cells (IL-1β; listed as indinavir) | mice with macroscopic lesions (%) (EA-hy 926 cells; listed as indinavir)
1 | CC(C)(C)NC(=O)[C@@H]1C[C@@H]2CCCC[C@@H]2CN1C[C@@H](O)[C@H](Cc1ccccc1)NC(=O)[C@H](CC(N)=O)NC(=O)c1ccc2ccccc2n1 [Saquinavir, saquinavir] | block | inhibit | do not interfere | do not interfere | inhibit | reduced; also recorded: inhibited | promote the regression | 0.55 ± 0.14 | 0.08 ± 0.1 | 0.71 ± 0.8 | 3/12 | 25 | – | –
2 | CC(C)(C)NC(=O)[C@@H]1CN(Cc2cccnc2)CCN1C[C@@H](O)C[C@@H](Cc1ccccc1)C(=O)N[C@H]1c2ccccc2C[C@H]1O [Indinavir, indinavir] | block | inhibit | do not interfere | do not interfere | inhibit | inhibited | promote the regression | 0.63 ± 0.17 | 0.70 ± 0.6 | 1.01 ± 1.5 | 4/12 | 33.3 | reduced | 33
